Reference: patent US5441941A, “1,2-dihydroellipticines with activity against CNS specific cancer” (The United States of America as represented by the …, priority 1993, dated 1995)

Columns and labels:
HOP-92 = assay: cells; settings: Homo sapiens
A498 = assay: NCI in vitro screen, SRB percent growth, Renal Cancer
DMS 273 = assay: NCI in vitro screen, SRB percent growth, Small Cell Lung Cancer
HOP-18 = assay: NCI in vitro screen, SRB percent growth, Non-Small Cell Lung Cancer
NCI-H522 = assay: as above
NCI-H226 = assay: cells; settings: Homo sapiens
SR = assay: NCI in vitro screen, SRB percent growth, Leukemia
RXF-393 = assay: NCI in vitro screen, SRB percent growth, Renal Cancer
SN12C = assay: as above
OVCAR-4 = assay: NCI in vitro screen, SRB percent growth, Ovarian Cancer
NCI-H322M = assay: NCI in vitro screen, SRB percent growth, Non-Small Cell Lung Cancer
[1] = HOP-92, read-out: Percent Growth
[2] = Log10 Concentration -4.0, 100 µM
[3] = Log10 Concentration -7.0, 0.1 µM
[4] = NCI-H226, read-out: Percent Growth

COc1ccc2[nH]c3c(C)c4c(c(C)c3c2c1)CN(C)C=C4 [Formula VII]
GI50 (HOP-92; HOP-92): 5.97 µM | CC50 (HOP-92; HOP-92, read-out: LC-50): 86.8 µM | activity at 0.01 µM (HOP-92; [1]): 121% | activity at 0.1 µM (HOP-92; [1]): 100% | activity at 1 µM (HOP-92; [1]): 95% | activity at 10 µM (HOP-92; [1]): 37% | activity at 100 µM (HOP-92; [1]): -56% | IC (TGI) (HOP-92; HOP-92, read-out: TGI): 25.1 µM | Percent Growth (A498; [2]): -3% | Percent Growth (A498; Log10 Concentration -5.0): 54% | Percent Growth (A498; Log10 Concentration -6.0, 1 µM): 93% | Percent Growth (A498; [3]): 114% | Percent Growth (A498; Log10 Concentration -8.0): 105% | TGI (A498; PG=0): 90.2 µM | GI50 (A498; PG=+50): 11.6 µM | CC50 (A498; read-out: LC-50, PG=-50): > 100 µM | TGI (DMS 273; PG=0): 13.4 µM | GI50 (DMS 273; PG=+50): 0.827 µM | Percent Growth (HOP-18; [2]): -6% | Percent Growth (HOP-18; Log10 Concentration -5.0): 71% | Percent Growth (HOP-18; Log10 Concentration -6.0, 1 µM): 121% | Percent Growth (HOP-18; [3]): 142% | Percent Growth (HOP-18; Log10 Concentration -8.0): 174% | TGI (HOP-18; PG=0): 82.8 µM | GI50 (HOP-18; PG=+50): 18.8 µM | CC50 (HOP-18; read-out: LC-50, PG=-50): > 100 µM | Percent Growth (NCI-H522; [2]): -46% | Percent Growth (NCI-H522; Log10 Concentration -5.0): -30% | Percent Growth (NCI-H522; Log10 Concentration -6.0, 1 µM): 40% | Percent Growth (NCI-H522; [3]): 91% | Percent Growth (NCI-H522; Log10 Concentration -8.0): 97% | TGI (NCI-H522; PG=0): 3.71 µM | GI50 (NCI-H522; PG=+50): 0.626 µM | CC50 (NCI-H522; read-out: LC-50, PG=-50): > 100 µM

Cc1ccc2[nH]c3c(C)c4c(c(C)c3c2c1)CN(C)C=C4 [Formula XI]
GI50 (NCI-H226; NCI-H226): 0.329 µM | CC50 (NCI-H226; NCI-H226, read-out: LC-50): 17.4 µM | activity at 0.01 µM (NCI-H226; [4]): 99% | activity at 0.1 µM (NCI-H226; [4]): 83% | activity at 1 µM (NCI-H226; [4]): 19% | activity at 10 µM (NCI-H226; [4]): -43% | activity at 100 µM (NCI-H226; [4]): -71% | IC (TGI) (NCI-H226; NCI-H226, read-out: TGI): 2.02 µM | Percent Growth (SR; [2]): -42% | Percent Growth (SR; Log10 Concentration -5.0): 6% | Percent Growth (SR; Log10 Concentration -6.0, 1 µM): 47% | Percent Growth (SR; [3]): 86% | Percent Growth (SR; Log10 Concentration -8.0): 101% | TGI (SR; PG=0): 13.5 µM | GI50 (SR; PG=+50): 0.846 µM | CC50 (SR; read-out: LC-50, PG=-50): > 100 µM | Percent Growth (RXF-393; [2]): -92% | Percent Growth (RXF-393; Log10 Concentration -5.0): 9% | Percent Growth (RXF-393; Log10 Concentration -6.0, 1 µM): 51% | Percent Growth (RXF-393; [3]): 96% | Percent Growth (RXF-393; Log10 Concentration -8.0): 99% | TGI (RXF-393; PG=0): 12.3 µM | GI50 (RXF-393; PG=+50): 1.04 µM | CC50 (RXF-393; read-out: LC-50, PG=-50): 38.5 µM | Percent Growth (SN12C; [2]): -92% | Percent Growth (SN12C; Log10 Concentration -5.0): -69% | Percent Growth (SN12C; Log10 Concentration -6.0, 1 µM): -36% | Percent Growth (SN12C; [3]): 66% | Percent Growth (SN12C; Log10 Concentration -8.0): 92% | TGI (SN12C; PG=0): 0.442 µM | GI50 (SN12C; PG=+50): 0.143 µM | CC50 (SN12C; read-out: LC-50, PG=-50): 2.65 µM | Percent Growth (OVCAR-4; [2]): -85% | Percent Growth (OVCAR-4; Log10 Concentration -5.0): -6% | Percent Growth (OVCAR-4; Log10 Concentration -6.0, 1 µM): 68% | Percent Growth (OVCAR-4; [3]): 96% | Percent Growth (OVCAR-4; Log10 Concentration -8.0): 113% | TGI (OVCAR-4; PG=0): 8.34 µM | GI50 (OVCAR-4; PG=+50): 1.74 µM | CC50 (OVCAR-4; read-out: LC-50, PG=-50): 36.3 µM | Percent Growth (NCI-H322M; [2]): -100% | Percent Growth (NCI-H322M; Log10 Concentration -5.0): 10% | Percent Growth (NCI-H322M; Log10 Concentration -6.0, 1 µM): 99% | Percent Growth (NCI-H322M; [3]): 139% | Percent Growth (NCI-H322M; Log10 Concentration -8.0): 133% | TGI (NCI-H322M; PG=0): 12.3 µM | GI50 (NCI-H322M; PG=+50): 3.55 µM | CC50 (NCI-H322M; read-out: LC-50, PG=-50): 35.1 µM
